Data as given in patent US20230085578A1, “SYSTEMS AND METHODS FOR TRIPLE-PARAMETRIC OPTICAL MAPPING” (The George Washington University, priority 2021, published 2023).
Where two headings read alike, the source gives them in different places.

Tested on: mouse hearts
Test: Triple parametric optical mapping (Vm, Ca2+, NADH) of Langendorff-perfused mouse hearts during drug treatment
Parameters: Effect on contractions of the heart (electromechanical uncoupling): dose or concentration left out as unconfirmed
Conditions: for APD80 (action potential duration) / AR (anisotropic ratio, CVL to CVT) / CVL (longitudinal conduction velocity) / CVT (transverse conduction velocity) / Ca2+ RT (rise time) / Ca t (calcium decay time constant) / CaTD80 (calcium transient duration) / NADH fluorescence intensity (normalized to first recording of the heart) / Vm RT (rise time) / Vm-Ca2+ delay: Blebbistatin 15 μM, Verapamil 1 μM, mean±SEM
Protocol: Langendorff perfusion: Adult male and female mice on C57BL/6 background were used in this study. Mice were anesthetized by isoflurane inhalation and cervical dislocation was performed. Hearts were quickly excised following thoracotomy and the aorta was cannulated. The heart was attached to a Langendorff perfusion system, hung in a vertical position in a temperature-controlled bath and perfused with a modified Tyrode's solution containing (in mM) 130 NaCl, 24 NaHCO3, 1.2 NaH2PO4, 1 MgCl2, 5.6 Glucose, 4 KCl, 1.8 CaCl2, pH 7.40 and bubbled with carbogen (95% 02 and 5% CO2) at 37° C. Perfusion pressure was maintained at ˜80 mmHg by adjusting the flow rate between 1 and 1.5 ml/min. A platinum bipolar electrode was placed at the center of the anterior surface residing the middle of the field of view. Gentle pressure was applied to the back of the heart as it was pushed up to the front optical glass of the bath using a paddle, allowing the pacing electrode to be held in place. Electrical stimuli were applied to determine the threshold of pacing. Hearts were paced at 1.5× pacing threshold amplitude and 2 ms stimulus duration, only during optical recording. Hearts were paced at varying rates as listed in the figures to determine the restitution properties of the heart under each condition.
Optical Mapping: The heart was subjected to a 10 min equilibration period followed by staining with the voltage- and calcium-sensitive dyes. A 1 ml mixture of RH237 ([…] Tyrode's solution, Biotium 61018) was prepared and immediately injected into the dye port above the cannula over a 3-5 min period. This was followed by a 5 min washout period. Similarly, a 1 ml mixture of Rhod2-AM (30 ul of 1 mg/ml dye stock solution+[…] Tyrode's solution, Thermo Fisher Scientific R1244 and Biotium 59005, respectively) was prepared and immediately injected into the dye port over a 3-5 min period. This was followed by 5 min dye washout period.
The heart was then illuminated by two LED excitation light sources at 365 nm and 520±5 nm wavelengths. While the former induces autofluorescence of NADH in the tissue, the latter excites both RH237 and Rhod2-AM dyes. Control optical recordings of NADH, Vm, and Ca^2+ were simultaneously acquired at 1 kHz sampling rate. NADH, Vm, and Ca^2+ are indicative of […].
[…] […] Optical recordings were once again acquired for each of these conditions as described above.
Data Analysis: Optical data of NADH, transmembrane potential and calcium were analyzed using a custom Matlab software, Rhythm 3.0, which is available in an open-source format on Github. Rhythm 3.0 which is an upgraded version of Rhythm 1.2, incorporates NADH visualization and analysis features as well as the ability to calculate delay in transmembrane potential to intracellular calcium activation (Vm-Ca^2+ Delay). Rhythm software was written to analyze data formats generated by SciMedia systems but can be modified to analyze other data formats.
Ten different parameters were measured from the 3 optical signals that were simultaneously recorded under each condition using the Rhythm 3.0 software to determine MECC. The ten parameters include, from transmembrane potential: (1) rise time (Vm RT), (2) action potential duration (APD80), (3) transverse and (4) longitudinal conduction velocity (CVT and CVL) and (5) anisotropic ratio (AR), from intracellular calcium: (6) rise time (Ca^2+ RT), (7) calcium transient duration (CaTD80), (8) calcium decay time constant (t), (9) Vm-Ca^2+ delay and (10) NADH fluorescence intensity.

## Nc1ccncc1 [4-AP, 4-aminopyridine]
4-AP 7 mM in presence of blebbistatin
  BCL at which pacing of the hearts was prevented (no 1:1 capture): < 125 ms
150 ms BCL, 4-AP 7 mM vs blebbistatin
  Change in CVT (in words): slowed
150 ms BCL, blebbistatin vs Control, 4-AP 7 mM vs blebbistatin
  Change in Ca2+ RT (in words): prolonged
BCL 125, 4-AP 7 mM
  APD80 (action potential duration): 69.09 ± 7.52
  AR (anisotropic ratio, CVL to CVT): 1.80 ± 0.19
  CVL (longitudinal conduction velocity): 0.47 ± 0.07
  CVT (transverse conduction velocity): 0.27 ± 0.05
  Ca2+ RT (rise time): 6.82 ± 1.39
  Ca t (calcium decay time constant): 27.106 ± 6.26
  CaTD80 (calcium transient duration): 79.32 ± 2.28
  NADH fluorescence intensity (normalized to first recording of the heart): 0.98 ± 0.07
  Vm RT (rise time): 5.15 ± 0.29
  Vm-Ca2+ delay: −1.88 ± 1.79
BCL 150, 4-AP 7 mM
  APD80 (action potential duration): 78.13 ± 3.52
  AR (anisotropic ratio, CVL to CVT): 1.90 ± 0.45
  CVL (longitudinal conduction velocity): 0.53 ± 0.09
  CVT (transverse conduction velocity): 0.28 ± 0.05
  Ca2+ RT (rise time): 7.05 ± 1.03
  Ca t (calcium decay time constant): 30.94 ± 5.51
  CaTD80 (calcium transient duration): 88.37 ± 6.37
  NADH fluorescence intensity (normalized to first recording of the heart): 0.97 ± 0.06
  Vm RT (rise time): 4.94 ± 0.63
  Vm-Ca2+ delay: −1.71 ± 2.13
BCL 200, 4-AP 7 mM
  APD80 (action potential duration): 84.56 ± 6.68
  AR (anisotropic ratio, CVL to CVT): 1.97 ± 0.37
  CVL (longitudinal conduction velocity): 0.66 ± 0.06
  CVT (transverse conduction velocity): 0.32 ± 0.05
  Ca2+ RT (rise time): 7.04 ± 1.57
  Ca t (calcium decay time constant): 37.11 ± 11.58
  CaTD80 (calcium transient duration): 96.41 ± 8.18
  NADH fluorescence intensity (normalized to first recording of the heart): 0.97 ± 0.07
  Vm RT (rise time): 4.79 ± 0.23
  Vm-Ca2+ delay: −1.48 ± 1.38
All tested pacing rates, vs blebbistatin
  Change in APD80 (in words): prolonged

## Cc1ccc2c(c1)C(=O)C1(O)CCN(c3ccccc3)C1=N2 (centres unmarked) [Blebbistatin, blebbistatin]
  Change in CVT (in words): faster
  Change in Ca2+ RT (in words): increased
  Change in NADH intensity (in words): reduced
  Number of the 10 measured parameters altered: 2
blebbistatin
  Effect on contractions of the heart (electromechanical uncoupling): abolished contractions

## COc1ccc(CCN(C)CCCC(C#N)(c2ccc(OC)c(OC)c2)C(C)C)cc1OC (centres unmarked) [Verapamil, verapamil]
BCL 80
  APD80 (action potential duration): 31.06 ± 0.00
  CVL (longitudinal conduction velocity): 0.28 ± 0.00
  CVT (transverse conduction velocity): 0.21 ± 0.00
  Ca2+ RT (rise time): 8.09 ± 0.00
  Ca t (calcium decay time constant): 13.71 ± 0.00
  CaTD80 (calcium transient duration): 60.74 ± 0.00
  NADH fluorescence intensity (normalized to first recording of the heart): 1.04 ± 0.00
  Vm-Ca2+ delay: −2.81 ± 0.00
BCL 90
  APD80 (action potential duration): 44.72 ± 9.21
  CVL (longitudinal conduction velocity): 0.35 ± 0.03
  CVT (transverse conduction velocity): 0.18 ± 0.04
  Ca2+ RT (rise time): 8.16 ± 1.36
  Ca t (calcium decay time constant): 17.15 ± 1.92
  CaTD80 (calcium transient duration): 63.46 ± 2.71
  NADH fluorescence intensity (normalized to first recording of the heart): 0.98 ± 0.07
  Vm RT (rise time): 4.65 ± 0.10
  Vm-Ca2+ delay: −6.07 ± 2.54
BCL 100
  APD80 (action potential duration): 45.75 ± 10.51
  CVL (longitudinal conduction velocity): 0.60 ± 0.02
  CVT (transverse conduction velocity): 0.23 ± 0.03
  Ca2+ RT (rise time): 9.54 ± 0.43
  Ca t (calcium decay time constant): 20.41 ± 3.36
  CaTD80 (calcium transient duration): 69.61 ± 3.02
  NADH fluorescence intensity (normalized to first recording of the heart): 0.99 ± 0.08
  Vm RT (rise time): 4.70 ± 0.39
  Vm-Ca2+ delay: −5.22 ± 1.73
BCL 125, 4-AP 7 mM
  APD80 (action potential duration): 49.46 ± 6.20
  CVL (longitudinal conduction velocity): 0.59 ± 0.03
  CVT (transverse conduction velocity): 0.28 ± 0.03
  Ca2+ RT (rise time): 8.28 ± 0.96
  Ca t (calcium decay time constant): 32.14 ± 11.32
  CaTD80 (calcium transient duration): 77.16 ± 7.51
  NADH fluorescence intensity (normalized to first recording of the heart): 0.99 ± 0.08
  Vm RT (rise time): 4.57 ± 0.25
  Vm-Ca2+ delay: −7.06 ± 4.13
BCL 150, 4-AP 7 mM
  APD80 (action potential duration): 54.39 ± 11.88
  CVL (longitudinal conduction velocity): 0.67 ± 0.02
  CVT (transverse conduction velocity): 0.29 ± 0.01
  Ca2+ RT (rise time): 9.31 ± 0.93
  Ca t (calcium decay time constant): 32.38 ± 4.88
  CaTD80 (calcium transient duration): 89.183 ± 11.79
  NADH fluorescence intensity (normalized to first recording of the heart): 0.99 ± 0.08
  Vm RT (rise time): 4.70 ± 0.46
  Vm-Ca2+ delay: −5.24 ± 2.31
BCL 200, 4-AP 7 mM
  APD80 (action potential duration): 55.28 ± 2.94
  CVL (longitudinal conduction velocity): 0.56 ± 0.09
  CVT (transverse conduction velocity): 0.30 ± 0.05
  Ca2+ RT (rise time): 9.14 ± 1.31
  Ca t (calcium decay time constant): 39.09 ± 5.88
  CaTD80 (calcium transient duration): 106.68 ± 19.92
  NADH fluorescence intensity (normalized to first recording of the heart): 0.99 ± 0.07
  Vm RT (rise time): 4.72 ± 0.28
  Vm-Ca2+ delay: −8.14 ± 4.48
